In ChEMBL document CHEMBL2010662, “Discovery of oxazole-based PDE4 inhibitors with picomolar potency” (Bioorg Med Chem Lett, 2012):

Assays:
[1] = biological target: 3',5'-cyclic-AMP phosphodiesterase 4B (Homo sapiens, UniProt Q07343); assay: Inhibition of PDE4B
[2] = biological target: Dual 3',5'-cyclic-AMP and -GMP phosphodiesterase 11A (Homo sapiens, UniProt Q9HCR9); assay: Inhibition of PDE11
[3] = Inhibition of PDE10
Cytochrome P450 2C9 = Cytochrome P450 2C9 (Homo sapiens, UniProt P11712); assay: Inhibition of CYP2C9; assay type: ADME
Sequence of Cytochrome P450 2C9 (P11712 whole entry): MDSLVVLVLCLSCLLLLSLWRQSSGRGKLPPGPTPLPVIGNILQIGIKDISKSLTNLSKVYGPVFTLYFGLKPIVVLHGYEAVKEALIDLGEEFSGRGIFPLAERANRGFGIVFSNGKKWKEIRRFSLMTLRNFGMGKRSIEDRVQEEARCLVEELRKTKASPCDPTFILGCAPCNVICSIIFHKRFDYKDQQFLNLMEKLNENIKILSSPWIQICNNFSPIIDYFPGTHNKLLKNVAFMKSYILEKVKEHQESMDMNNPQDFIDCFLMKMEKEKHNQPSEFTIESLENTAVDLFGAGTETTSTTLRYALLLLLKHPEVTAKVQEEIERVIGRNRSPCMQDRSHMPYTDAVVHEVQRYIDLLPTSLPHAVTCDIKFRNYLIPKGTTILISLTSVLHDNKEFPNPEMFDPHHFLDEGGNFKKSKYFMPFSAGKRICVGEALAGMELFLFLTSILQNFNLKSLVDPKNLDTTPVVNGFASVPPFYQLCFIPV

Rattus norvegicus = assay: Antiinflammatory activity in po dosed rat assessed as inhibition of LPS-induced pulmonary inflammation; assay type: functional
[4] = Cmax in rat at 10 mg/kg, po; assay type: ADME, organism-based; set-up: dose 10 mg/kg, route oral; conditions: in vivo
Cytochrome P450 2C19 = Cytochrome P450 2C19 (Homo sapiens, UniProt P33261); assay: Inhibition of CYP2C19; assay type: ADME
Sequence of Cytochrome P450 2C19 (P33261 whole entry): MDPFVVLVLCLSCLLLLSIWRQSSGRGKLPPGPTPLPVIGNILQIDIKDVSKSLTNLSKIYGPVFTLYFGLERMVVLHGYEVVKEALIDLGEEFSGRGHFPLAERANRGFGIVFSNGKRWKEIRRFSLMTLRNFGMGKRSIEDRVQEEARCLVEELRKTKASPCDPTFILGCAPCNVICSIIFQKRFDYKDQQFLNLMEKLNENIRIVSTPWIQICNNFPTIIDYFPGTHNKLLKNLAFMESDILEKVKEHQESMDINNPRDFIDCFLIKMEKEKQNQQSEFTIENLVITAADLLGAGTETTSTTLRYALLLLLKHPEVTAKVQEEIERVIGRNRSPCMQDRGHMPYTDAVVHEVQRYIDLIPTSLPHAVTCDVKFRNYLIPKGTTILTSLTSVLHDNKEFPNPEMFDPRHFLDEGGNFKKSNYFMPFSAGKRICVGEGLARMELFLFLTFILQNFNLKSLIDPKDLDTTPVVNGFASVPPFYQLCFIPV

Cytochrome P450 2D6 = Cytochrome P450 2D6 (Homo sapiens, UniProt P10635); assay: Inhibition of CYP2D6; assay type: ADME
Sequence of Cytochrome P450 2D6 (P10635 whole entry): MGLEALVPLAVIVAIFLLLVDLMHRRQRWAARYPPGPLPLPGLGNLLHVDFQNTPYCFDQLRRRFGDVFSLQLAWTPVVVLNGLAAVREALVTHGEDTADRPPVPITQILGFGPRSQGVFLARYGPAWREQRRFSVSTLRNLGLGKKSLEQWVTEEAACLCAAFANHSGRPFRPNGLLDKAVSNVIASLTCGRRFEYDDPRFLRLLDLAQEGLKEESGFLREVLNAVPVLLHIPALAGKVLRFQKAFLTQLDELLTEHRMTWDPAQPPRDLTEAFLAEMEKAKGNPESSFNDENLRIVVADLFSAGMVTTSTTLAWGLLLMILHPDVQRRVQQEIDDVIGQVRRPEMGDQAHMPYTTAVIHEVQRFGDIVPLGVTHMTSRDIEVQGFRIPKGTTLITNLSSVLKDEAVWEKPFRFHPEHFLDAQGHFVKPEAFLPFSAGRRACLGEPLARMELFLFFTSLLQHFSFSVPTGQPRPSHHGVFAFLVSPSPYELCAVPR

Cytochrome P450 3A4 = Cytochrome P450 3A4 (Homo sapiens, UniProt P08684); assay: Inhibition of CYP3A4; assay type: ADME
Sequence of Cytochrome P450 3A4 (P08684 whole entry): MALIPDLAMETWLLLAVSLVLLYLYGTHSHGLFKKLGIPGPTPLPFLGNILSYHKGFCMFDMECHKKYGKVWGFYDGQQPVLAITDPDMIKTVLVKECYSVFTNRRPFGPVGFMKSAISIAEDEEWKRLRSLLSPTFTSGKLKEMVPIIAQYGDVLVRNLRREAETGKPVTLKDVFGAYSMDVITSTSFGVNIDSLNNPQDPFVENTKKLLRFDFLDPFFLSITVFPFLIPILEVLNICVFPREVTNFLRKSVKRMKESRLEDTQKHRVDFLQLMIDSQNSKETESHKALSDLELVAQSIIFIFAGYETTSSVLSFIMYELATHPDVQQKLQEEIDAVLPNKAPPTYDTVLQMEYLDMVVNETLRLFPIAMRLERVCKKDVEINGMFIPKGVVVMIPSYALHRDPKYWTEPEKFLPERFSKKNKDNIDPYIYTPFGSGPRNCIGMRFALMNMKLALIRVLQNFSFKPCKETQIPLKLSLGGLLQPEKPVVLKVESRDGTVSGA

[5] = Oral bioavailability in rat at 10 mg/kg; assay type: ADME, organism-based; conditions: in vivo
[6] = Inhibition of PDE4-mediated TNF-alpha release by cell based assay
[7] = biological target: 3',5'-cyclic-AMP phosphodiesterase 4D (Homo sapiens, UniProt Q08499); assay: Inhibition of PDE4D
Sequence of 3',5'-cyclic-AMP phosphodiesterase 4D (Q08499 whole entry): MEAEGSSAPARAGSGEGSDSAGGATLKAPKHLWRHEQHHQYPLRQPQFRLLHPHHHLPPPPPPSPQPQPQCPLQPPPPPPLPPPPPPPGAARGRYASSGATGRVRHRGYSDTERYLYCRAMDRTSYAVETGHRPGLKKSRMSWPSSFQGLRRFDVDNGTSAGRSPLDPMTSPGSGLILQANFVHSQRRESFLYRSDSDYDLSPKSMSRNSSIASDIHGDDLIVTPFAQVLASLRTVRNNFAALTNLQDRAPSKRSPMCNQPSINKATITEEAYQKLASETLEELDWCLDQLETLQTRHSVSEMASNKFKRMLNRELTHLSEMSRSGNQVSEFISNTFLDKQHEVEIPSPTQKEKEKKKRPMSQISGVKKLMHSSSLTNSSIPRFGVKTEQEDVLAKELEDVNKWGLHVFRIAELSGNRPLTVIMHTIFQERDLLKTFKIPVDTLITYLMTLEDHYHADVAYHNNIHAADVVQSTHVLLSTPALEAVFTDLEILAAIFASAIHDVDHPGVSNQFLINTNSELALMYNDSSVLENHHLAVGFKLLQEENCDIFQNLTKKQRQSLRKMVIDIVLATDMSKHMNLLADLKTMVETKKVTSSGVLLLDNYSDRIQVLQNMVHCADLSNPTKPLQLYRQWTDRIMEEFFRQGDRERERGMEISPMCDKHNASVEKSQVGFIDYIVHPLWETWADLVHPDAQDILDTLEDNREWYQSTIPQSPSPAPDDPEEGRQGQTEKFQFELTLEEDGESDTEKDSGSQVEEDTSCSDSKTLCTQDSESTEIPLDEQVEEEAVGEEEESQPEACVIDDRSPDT

Sequence of Dual 3',5'-cyclic-AMP and -GMP phosphodiesterase 11A (Q9HCR9 whole entry): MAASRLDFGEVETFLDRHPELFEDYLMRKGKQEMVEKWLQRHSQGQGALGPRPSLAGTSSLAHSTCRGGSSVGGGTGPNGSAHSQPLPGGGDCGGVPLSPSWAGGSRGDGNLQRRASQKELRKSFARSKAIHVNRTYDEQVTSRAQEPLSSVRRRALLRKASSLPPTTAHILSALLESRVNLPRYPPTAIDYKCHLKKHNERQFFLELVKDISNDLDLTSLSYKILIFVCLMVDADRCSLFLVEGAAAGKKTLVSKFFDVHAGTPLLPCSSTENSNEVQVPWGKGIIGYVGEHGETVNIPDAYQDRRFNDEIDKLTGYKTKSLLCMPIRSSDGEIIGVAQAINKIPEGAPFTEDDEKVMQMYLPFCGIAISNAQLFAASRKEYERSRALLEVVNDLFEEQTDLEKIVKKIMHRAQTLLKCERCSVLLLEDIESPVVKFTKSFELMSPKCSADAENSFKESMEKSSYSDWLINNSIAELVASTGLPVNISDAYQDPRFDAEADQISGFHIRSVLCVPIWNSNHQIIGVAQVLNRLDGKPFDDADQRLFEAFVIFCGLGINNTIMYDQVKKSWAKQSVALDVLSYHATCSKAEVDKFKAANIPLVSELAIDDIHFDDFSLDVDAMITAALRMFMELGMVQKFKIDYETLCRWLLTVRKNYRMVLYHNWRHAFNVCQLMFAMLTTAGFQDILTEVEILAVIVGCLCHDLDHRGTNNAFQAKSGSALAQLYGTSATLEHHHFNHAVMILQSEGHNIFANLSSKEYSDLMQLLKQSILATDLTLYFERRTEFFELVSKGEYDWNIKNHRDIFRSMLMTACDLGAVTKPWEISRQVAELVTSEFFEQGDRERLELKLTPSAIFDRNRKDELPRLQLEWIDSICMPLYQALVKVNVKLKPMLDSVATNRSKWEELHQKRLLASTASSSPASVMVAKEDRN
Sequence of 3',5'-cyclic-AMP phosphodiesterase 4B (Q07343 whole entry): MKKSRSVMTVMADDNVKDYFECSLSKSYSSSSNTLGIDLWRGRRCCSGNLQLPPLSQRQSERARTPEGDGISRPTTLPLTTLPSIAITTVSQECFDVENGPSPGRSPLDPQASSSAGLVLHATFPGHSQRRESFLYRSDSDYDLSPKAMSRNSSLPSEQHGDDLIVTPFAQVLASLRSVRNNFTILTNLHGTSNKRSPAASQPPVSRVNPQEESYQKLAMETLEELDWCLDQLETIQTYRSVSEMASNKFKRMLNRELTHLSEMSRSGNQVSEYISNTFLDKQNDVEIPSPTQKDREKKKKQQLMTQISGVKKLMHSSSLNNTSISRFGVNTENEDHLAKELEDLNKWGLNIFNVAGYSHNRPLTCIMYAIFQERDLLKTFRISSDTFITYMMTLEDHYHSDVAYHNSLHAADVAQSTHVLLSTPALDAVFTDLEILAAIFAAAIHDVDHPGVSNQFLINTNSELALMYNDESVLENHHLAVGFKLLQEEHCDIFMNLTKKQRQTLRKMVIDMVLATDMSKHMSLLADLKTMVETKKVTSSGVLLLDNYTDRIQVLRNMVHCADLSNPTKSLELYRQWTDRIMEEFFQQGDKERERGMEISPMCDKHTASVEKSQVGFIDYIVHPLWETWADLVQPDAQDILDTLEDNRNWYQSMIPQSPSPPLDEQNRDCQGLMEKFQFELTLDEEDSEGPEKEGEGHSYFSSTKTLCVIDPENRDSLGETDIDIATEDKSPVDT

Row | Structure (SMILES) | IC50 [1] | IC50 [2] | IC50 [3] | further results
1 | COc1ccc(-c2nc(C(=O)NCc3ccc(Cl)cc3Cl)c(CN)o2)c2ccc(C(F)(F)F)nc12 | 4.3 nM | 1100 nM | 1300 nM | 
2 | COc1ccc(-c2nc(C(=O)NCc3c(F)cc(F)cc3F)c([C@H](C)N)o2)c2ccc(C(F)(F)F)nc12 | 0.04 nM | 3400 nM | 500 nM | 
3 | COc1ccc(-c2nc(C(=O)N[C@H](CO)c3ccccc3)c(CN)o2)c2ccc(C(F)(F)F)nc12 | 1.6 nM |  |  | 
4 | COc1ccc(-c2nc(C(=O)NCc3ccc(F)cc3F)c([C@@H](N)C(C)C)o2)c2ccc(C(F)(F)F)nc12 | 0.36 nM |  |  | 
5 | COc1ccc(-c2nc(C(=O)NCc3ccc(Cl)cc3F)c(CN)o2)c2ccc(C(F)(F)F)nc12 | 2.7 nM | 2700 nM | 2200 nM | 
6 | COc1ccc(-c2nc(C(=O)NCc3c(F)cccc3F)c(CN)o2)c2ccc(C(F)(F)F)nc12 | 0.46 nM | 2500 nM | 240 nM | 
7 | COc1ccc(-c2nc(C(=O)NCc3ccc(F)cc3F)c(CN)o2)c2ccc(C(F)(F)F)nc12 | 0.6 nM | 2200 nM | 1000 nM | IC50 [7]: 0.7 nM
8 | COc1ccc(-c2nc(C(=O)N[C@H](CO)c3ccccc3)c([C@H](C)N)o2)c2ccc(C(F)(F)F)nc12 | 0.11 nM |  |  | 
9 | COc1ccccc1CNC(=O)c1nc(-c2ccc(OC)c3nc(C(F)(F)F)ccc23)oc1CN | 0.5 nM | 870 nM | 320 nM | 
10 | COc1ccc(-c2nc(C(=O)NCc3ccc(F)c(F)c3)c(CN)o2)c2ccc(C(F)(F)F)nc12 | 2.6 nM | 2200 nM | 1300 nM | 
11 | COc1ccc(-c2nc(C(=O)NCc3ccccc3Cl)c(CN)o2)c2ccc(C(F)(F)F)nc12 | 1.2 nM | 2300 nM | 610 nM | 
12 | COc1ccc(-c2nc(C(=O)N[C@H](CO)c3ccccc3)c([C@@H](C)N)o2)c2ccc(C(F)(F)F)nc12 | 8.4 nM |  |  | 
13 | COc1ccc(-c2nc(C(=O)NCc3ccccc3)c(CN)o2)c2ccc(C(F)(F)F)nc12 | 3.7 nM | 4800 nM | 1200 nM | 
14 | COc1ccc(-c2nc(C(=O)NCc3cccc(Cl)c3)c(CN)o2)c2ccc(C(F)(F)F)nc12 | 1.5 nM | 2100 nM | 770 nM | 
15 | COc1ccc(-c2nc(C(=O)NCc3c(F)cccc3Cl)c(CN)o2)c2ccc(C(F)(F)F)nc12 | 0.1 nM | 1300 nM | 410 nM | 
16 | COc1ccc(-c2nc(C(=O)NCc3ccc(S(C)(=O)=O)cc3)c(CN)o2)c2ccc(C(F)(F)F)nc12 | 37 nM |  |  | 
17 | COc1ccc(-c2nc(C(=O)NCc3ccccc3F)c(CN)o2)c2ccc(C(F)(F)F)nc12 | 0.9 nM | 3600 nM | 500 nM | 
18 | COc1ccc(-c2nc(C(=O)NCc3cccc(F)c3)c(CN)o2)c2ccc(C(F)(F)F)nc12 | 1.8 nM | 3900 nM | 810 nM | 

Second part, led by results:

Row | IC50 [1] | IC50 [2] | IC50 [3] | Structure (SMILES) | further results
19 | 26 nM |  |  | COc1ccc(-c2nc(C(=O)NCc3ccc(C#N)cc3)c(CN)o2)c2ccc(C(F)(F)F)nc12 | 
20 | 0.3 nM | 1100 nM | 80 nM | COc1ccc(-c2nc(C(=O)NCc3ccccc3F)c([C@H](C)N)o2)c2ccc(C(F)(F)F)nc12 | 
21 | 0.7 nM | 1800 nM | 1700 nM | COc1ccc(-c2nc(C(=O)NCc3ccc(Cl)cc3Cl)c([C@H](C)N)o2)c2ccc(C(F)(F)F)nc12 | 
22 | 0.7 nM | 1100 nM | 700 nM | COc1ccc(-c2nc(C(=O)NCc3ccc(Cl)cc3F)c([C@H](C)N)o2)c2ccc(C(F)(F)F)nc12 | 
23 | 0.06 nM | 2300 nM | 950 nM | COc1ccc(-c2nc(C(=O)NCc3ccc(F)cc3F)c([C@H](C)N)o2)c2ccc(C(F)(F)F)nc12 | IC50 (Cytochrome P450 2C9): > 8 µM; ED50 (Rattus norvegicus): 0.1 mg/kg; Cmax [4]: 960 nM; IC50 (Cytochrome P450 2C19): > 8 µM; IC50 (Cytochrome P450 2D6): > 8 µM; IC50 (Cytochrome P450 3A4): > 8 µM; bioavailability [5]: 24%; IC50 [6]: 0.6 nM
24 | 0.05 nM | 1400 nM | 125 nM | COc1ccc(-c2nc(C(=O)NCc3c(F)cccc3F)c([C@H](C)N)o2)c2ccc(C(F)(F)F)nc12 | 
25 | 0.3 nM | 1400 nM | 160 nM | COc1ccc(-c2nc(C(=O)NCc3cccc(F)c3)c([C@H](C)N)o2)c2ccc(C(F)(F)F)nc12 | 
26 | 0.03 nM | 1600 nM | 120 nM | COc1ccc(-c2nc(C(=O)NCc3c(F)cccc3Cl)c([C@H](C)N)o2)c2ccc(C(F)(F)F)nc12 | 
27 | 12.7 nM |  |  | COc1ccc(-c2nc(C(=O)NCc3ccc(Cl)cc3)c([C@@H](N)CO)o2)c2ccc(C(F)(F)F)nc12 | 
28 | 0.6 nM | 2000 nM | 1400 nM | COc1ccc(-c2nc(C(=O)NCc3ccc(F)c(F)c3)c([C@H](C)N)o2)c2ccc(C(F)(F)F)nc12 | 
29 | 3.4 nM | 2700 nM | 2100 nM | COc1ccc(-c2nc(C(=O)NCc3ccc(Cl)cc3)c(CN)o2)c2ccc(C(F)(F)F)nc12 | 
30 | 0.35 nM | 1100 nM | 650 nM | COc1ccc(-c2nc(C(=O)NCc3ccc(Cl)cc3)c([C@H](C)N)o2)c2ccc(C(F)(F)F)nc12 | 
31 | 4.1 nM | 2700 nM | 1300 nM | COc1ccc(-c2nc(C(=O)NCc3ccc(F)cc3)c(CN)o2)c2ccc(C(F)(F)F)nc12 | 
32 | 0.81 nM |  |  | CC[C@H](N)c1oc(-c2ccc(OC)c3nc(C(F)(F)F)ccc23)nc1C(=O)NCc1ccc(Cl)cc1 | 
